This passage reports IC50 results from patent publication US20200317642A1, “AMINE-SUBSTITUTED HETEROCYCLIC COMPOUNDS AS EHMT2 INHIBITORS AND DERIVATIVES THEREOF” (Epizyme, Inc., priority 2017, published 2020).

SMILES strings stand for the structures. Some results are limits rather than exact numbers.

The target in one assay is T1, EHMT1 (Homo sapiens, UniProt Q9H9B1).
T1 sequence (Q9H9B1 1-1298): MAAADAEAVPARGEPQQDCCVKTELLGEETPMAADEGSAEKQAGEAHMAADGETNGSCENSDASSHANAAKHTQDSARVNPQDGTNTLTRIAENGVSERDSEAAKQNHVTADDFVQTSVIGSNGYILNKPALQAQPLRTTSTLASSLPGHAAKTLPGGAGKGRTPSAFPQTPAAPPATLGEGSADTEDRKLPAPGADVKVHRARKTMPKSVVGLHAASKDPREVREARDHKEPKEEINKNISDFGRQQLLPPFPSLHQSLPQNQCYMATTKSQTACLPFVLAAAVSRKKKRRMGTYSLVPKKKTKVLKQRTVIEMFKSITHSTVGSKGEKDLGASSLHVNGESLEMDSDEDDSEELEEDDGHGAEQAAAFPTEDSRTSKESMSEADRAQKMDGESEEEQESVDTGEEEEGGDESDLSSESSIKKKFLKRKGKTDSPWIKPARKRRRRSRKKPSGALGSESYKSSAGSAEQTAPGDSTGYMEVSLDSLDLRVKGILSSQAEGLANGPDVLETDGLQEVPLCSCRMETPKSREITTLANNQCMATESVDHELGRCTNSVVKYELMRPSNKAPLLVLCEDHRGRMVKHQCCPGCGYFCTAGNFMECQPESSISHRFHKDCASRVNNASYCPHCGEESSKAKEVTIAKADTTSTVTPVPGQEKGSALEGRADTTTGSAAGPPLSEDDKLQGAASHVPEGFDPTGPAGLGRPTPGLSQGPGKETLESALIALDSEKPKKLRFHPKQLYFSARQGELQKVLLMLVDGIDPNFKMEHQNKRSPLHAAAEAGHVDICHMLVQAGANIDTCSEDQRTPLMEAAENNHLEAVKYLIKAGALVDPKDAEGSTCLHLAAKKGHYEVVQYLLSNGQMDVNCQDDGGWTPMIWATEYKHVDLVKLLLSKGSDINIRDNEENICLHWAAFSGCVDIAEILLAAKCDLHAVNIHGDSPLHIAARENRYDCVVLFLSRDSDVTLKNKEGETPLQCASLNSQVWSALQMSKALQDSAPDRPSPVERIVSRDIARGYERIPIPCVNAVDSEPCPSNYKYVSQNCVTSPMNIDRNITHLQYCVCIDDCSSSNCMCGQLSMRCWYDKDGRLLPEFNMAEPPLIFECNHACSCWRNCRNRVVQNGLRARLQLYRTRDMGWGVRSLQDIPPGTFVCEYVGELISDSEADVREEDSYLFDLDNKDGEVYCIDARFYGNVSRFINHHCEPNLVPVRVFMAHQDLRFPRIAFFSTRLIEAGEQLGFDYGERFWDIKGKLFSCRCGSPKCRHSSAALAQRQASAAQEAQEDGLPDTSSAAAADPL
Kind of assay: EHMT1 PEP enzyme assay. The assay is classed as biochemical. As to conditions: Table 3; read-out: EHMT1 PEP (IC50 μM).

Assay [1] has as its system H3K9me2 in MDA-MB-231 cells. The assay is described as follows: MDA-MB-231 H3K9me2 in-cell western assay (EHMT2 ICW). Particulars: Homo sapiens, Table 3, read-out: EHMT2 ICW (IC50 μM). In kind it is cell-based. An excerpt: MDA-MB-231 cell line was purchased from ATCC (Manassas, Va., USA). RPMI/Glutamax medium, Penicillin-Streptomycin, Heat Inactivated Fetal Bovine Serum, and D-PBS were purchased from Life Technologies (Grand Island, N.Y., USA). Odyssey blocking buffer, 800 CW goat anti-mouse IgG (H+L) antibody, and Licor Odyssey Infrared Scanner were purchased from Licor Biosciences, Lincoln, Nebr., USA. H3K9me2 mouse monoclonal antibody (Cat #1220) was purchased from Abcam (Cambridge, Mass., USA). 16% Paraformaldehyde was purchased from Electron Microscopy Sciences, Hatfield, Pa., USA). MDA-MB-231 cells were maintained in complete growth medium (RPMI supplemented with 10% v/v heat inactivated fetal bovine serum) and cultured at 37° C. under 5% C02. UNC0638 was purchased from Sigma-Aldrich (St. Louis, Mo., USA).
General Procedure for MDA-MB-231 HEK9me2 in-Cell Western Assay.
Compound (100 nL) was added directly to 384-well cell plate. MDA-MB-231 cells (ATCC) were seeded in assay medium (RPMI/Glutamax supplemented with 10% v/v heat inactivated fetal bovine serum and 1% Penicillin/Streptomycin, Life Technologies) at a concentration of 3,000 cells per well to a Poly-D-Lysine coated 384-well cell culture plate with 50 μL per well. Plates were incubated at 37° C., 5% CO2 for 48 hours (BD Biosciences 356697). […] After the incubation, 50 μL per well of 8% paraformaldehyde (Electron Microscopy Sciences) in PBS was added to the plates and incubated at room temperature for 20 minutes. Plates were transferred to a Biotek 406 plate washer and washed 2 times with 100 μL per well of wash buffer (1×PBS containing 0.3% Triton X-100 (v/v)). Next, 60 μL per well of Odyssey blocking buffer (Licor Biosciences) was added to each plate and incubated for 1 hour at room temperature. Blocking buffer was removed and 20 μL of monoclonal primary antibody α-H3K9me2 (Abcam) diluted 1:800 in Odyssey buffer with 0.1% Tween 20 (v/v) were added and plates were incubated overnight (16 hours) at 4° C. Plates were washed 5 times with 100 μL per well of wash buffer. Next 20 μL per well of secondary antibody was added (1:500 800 CW donkey anti-mouse IgG (H+L) antibody (Licor Biosciences), 1:1000 DRAQ5 (Cell Signaling Technology) in Odyssey buffer with 0.1% Tween 20 (v/v)) and incubated for 1 hour at room temperature. The plates were washed 5 times with 100 μL per well wash buffer then 2 times with 100 μL per well of water. Plates were allowed to dry at room temperature then imaged on a Licor Odyssey Infrared Scanner (Licor Biosciences) which measured integrated intensity at 700 nm and 800 nm wavelengths. Both 700 and 800 channels were scanned.
First, the ratio for each well was determined by:
Each plate included fourteen control wells of DMSO only treatment (Minimum Inhibition) as well as fourteen control wells (background wells) for maximum inhibition treated with control compound UNC0638 (Background wells).
The average of the ratio values for each well was calculated and used to determine the percent inhibition for each test well in the plate. Control compound was serially diluted three-fold in DMSO for a total of 10 test concentrations beginning at 1 μM. Percent inhibition was calculated as: […]
IC50 curves were generated using triplicate wells per concentration of compound. The IC50 is the concentration of compound at which measured methylation is inhibited by 50% as interpolated from the dose response curves. IC50 values were calculated using a non-linear regression (variable slope-four parameter fit model) with by the following formula:
where Top is fixed at 100% and Bottom is fixed to 0%, [I]=concentration of inhibitor, IC50=half maximal inhibitory concentration and n=Hill Slope.

In the case of `CNc1cc(C)nc(Nc2ccc(Br)c(CNCCN3CCCC3)c2)n1` [Compound 1, 2-N-[4-bromo-3-([[2-(pyrrolidin-1-yl)ethyl]amino]methyl)phenyl]-4-N,6-dimethylpyrimidine-2,4-diamine], the IC50 was < 0.1 µM at EHMT1 and 1 to 10 µM in assay [1].
In the same order, the values of `CNc1cc(C)nc(Nc2ccc(Cl)c(C(=O)NCC3COC3)c2)n1` [Compound 2, 2-chloro-5-[[4-methyl-6-(methylamino)pyrimidin-2-yl]amino]-N-(oxetan-3-ylmethyl)benzamide] are 1 to 10 µM and > 10 µM.
Turning to `CNc1cc(C)nc(Nc2ccc(Cl)c(C(=O)NCC3CCC3)c2)n1` [Compound 3], the results for the IC50 (on EHMT1; in assay [1]) were 0.1 to 1 µM and > 10 µM, respectively.
For the molecule `CNc1cc(C)nc(Nc2ccc(Cl)c(C(=O)NCC3CC3)c2)n1` [Compound 4], the figures for the IC50 (on EHMT1; in assay [1]) were 1 to 10 µM and > 10 µM, respectively.
Turning to `CNc1cc(C)nc(Nc2ccc(Cl)c(C(=O)Nc3cccnn3)c2)n1` [Compound 5], the IC50 at EHMT1 was 1 to 10 µM; in assay [1], > 10 µM.
Taken in the same sequence, the figures for `CNc1cc(C)nc(Nc2ccc(Cl)c(C(=O)Nc3ncco3)c2)n1` [Compound 6] were 1 to 10 µM and 1 to 10 µM.
In the case of `CNc1cc(C)nc(Nc2ccc(Cl)c(C(=O)NCCN3CCCC3)c2)n1` [Compound 7], the results for the IC50 (on EHMT1; in assay [1]) were < 0.1 µM and 1 to 10 µM, respectively.
For the molecule `CNc1cc(C)nc(Nc2ccc(Cl)c(C(=O)NC3CCOCC3)c2)n1` [Compound 8], the IC50 (on EHMT1; in assay [1]) was > 10 µM in each case.
For the molecule `CCCCNC(=O)c1cc(Nc2nc(C)cc(NC)n2)ccc1Cl` [Compound 9], the IC50 at EHMT1 lay within 0.1 to 1 µM; in assay [1], 1 to 10 µM.
In the same order, the values of `CNc1cc(C)nc(Nc2ccc(Cl)c(C(=O)Nc3ccccc3)c2)n1` [Compound 10] are 1 to 10 µM and > 10 µM.
As to `CNc1cc(C)nc(Nc2ccc(C3CC3)c(CNCCN3CCCC3)c2)n1` [Compound 11, 2-N-[4-cyclopropyl-3-([[2-(pyrrolidin-1-yl)ethyl]amino]methyl)phenyl]-4-N,6-dimethylpyrimidine-2,4-diamine], the IC50 is < 0.1 µM at EHMT1 and 1 to 10 µM in assay [1].
For `CNc1cc(C)nc(Nc2ccc(Cl)c(C(=O)Nc3cscn3)c2)n1` [Compound 13], the values for the IC50 (on EHMT1; in assay [1]) were 0.1 to 1 µM and 1 to 10 µM, respectively.
As to `CNc1cc(C)nc(Nc2ccc(Cl)c(C(=O)Nc3cocn3)c2)n1` [Compound 14, 2-chloro-5-[[4-methyl-6-(methylamino)pyrimidin-2-yl]amino]-N-(1,3-oxazol-4-yl)benzamide], the IC50 at EHMT1 is 1 to 10 µM; in assay [1] it was > 10 µM.
Taken in the same sequence, the figures for `CNc1cc(C)nc(Nc2ccc(Cl)c(C(=O)Nc3cn(C)cn3)c2)n1` [Compound 15] were > 10 µM and > 10 µM.
On to `CNc1cc(C)nc(Nc2ccc(OC)c(C#CCN3CCNCC3)c2)n1` [Compound 28, 2-N-[4-methoxy-3-[3-(piperazin-1-yl)prop-1-yn-1-yl]phenyl]-4-N,6-dimethylpyrimidine-2,4-diamine], for which the IC50 on EHMT1 is < 0.1 µM; in assay [1] it was 1 to 10 µM.
As to `CNc1cc(C)nc(Nc2ccc(C)c(C(=O)Nc3cc(C#N)ccn3)c2)n1` [Compound 30], the IC50 was 1 to 10 µM on EHMT1 and > 10 µM in assay [1].
On to `CNc1cc(C)nc(Nc2ccc(OC)c(CNCCN3CCC[C@H]3C)c2)n1` [Compound 31], for which the figures for the IC50 (on EHMT1; in assay [1]) were < 0.1 µM and 1 to 10 µM, respectively.
Consider `CNc1cc(C)nc(Nc2ccc(OC)c(CNCCN3CCC[C@@H]3C)c2)n1` [Compound 32], for which the IC50 fell in the range of 0.1 to 1 µM at EHMT1 and 1 to 10 µM in assay [1].
Taken in the same sequence, the figures for `CNc1cc(C)nc(Nc2ccc(C)c(C(=O)Nc3ncn(C)n3)c2)n1` [Compound 33] were 1 to 10 µM and > 10 µM.
In the case of `CNc1cc(C)nc(Nc2ccc(OC)c(CNCCN3CC(C)C3)c2)n1` [Compound 35], the IC50 (at EHMT1; in assay [1]) was > 10 µM each time.
Regarding `CNc1cc(C)nc(Nc2ccc(C)c(C(=O)Nc3cn(C4CC4)cn3)c2)n1` [Compound 36], the IC50 (on EHMT1; in assay [1]) was > 10 µM in each case.
In the case of `CNc1cc(C)nc(Nc2ccc(C)c(C(=O)Nc3c[nH]cn3)c2)n1` [Compound 37], the IC50 at EHMT1 was 1 to 10 µM; in assay [1], > 10 µM.
In the case of `CNc1cc(C)nc(Nc2ccc(OC)c(CNCCN3CC[C@@H](C)C3)c2)n1` [Compound 38], the IC50 on EHMT1 is 0.1 to 1 µM; in assay [1] it was > 10 µM.
In the same order, the values of `CNc1cc(C)nc(Nc2ccc(OC)c(CNCCN3CC[C@H](C)C3)c2)n1` [Compound 39] are 0.1 to 1 µM and 1 to 10 µM.
In the same order, the values of `CNc1cc(C)nc(Nc2ccc(OC)c(OC[C@H](O)CN3CCCCC3)c2)n1` [Compound 40] are > 10 µM and > 10 µM.
Regarding `CNc1cc(C)nc(Nc2ccc(OC)c(OC[C@H](O)CN3CC4(CC4)C3)c2)n1` [Compound 41], the IC50 (on EHMT1; in assay [1]) was > 10 µM throughout.
`CNc1cc(C)nc(Nc2ccc(OC)c(CNC[C@@H](C)N3CCCC3)c2)n1` [Compound 42]: the IC50 at EHMT1 lay within 0.1 to 1 µM; in assay [1], 1 to 10 µM.
On to `CNc1cc(C)nc(Nc2ccc(OC)c(CNC[C@H](C)N3CCCC3)c2)n1` [Compound 43], for which the IC50 (on EHMT1; in assay [1]) was > 10 µM each time.
Turning to `CNc1cc(C)nc(Nc2ccc(OC)c(C#CC[N+](C)(C)CCN)c2)n1` [Compound 45], the IC50 (at EHMT1; in assay [1]) was > 10 µM in each case.
